In US10093670B2, “Azabenzimidazole derivative having AMPK-activating activity” (Shionogi & Co., Ltd., priority 2011, dated 2018):

Key:
Human AMPK α2β2γ1 = target: T1, Human AMPK α2β2γ1 (Homo sapiens, UniProt O43741+P54646); experiment: Evaluation of AMPK activator, Test Example 2 (CaMKK2-phosphorylated enzyme, mobility-shift kinase assay); assay type: biochemical; details: for EC150 (compound concentration showing 150% relative to the control (100%)): human AMPK α2β2γ1 phosphorylated by CaMKK2, 25° C., 2 hours; for Emax: human AMPK α2β2γ1 phosphorylated by CaMKK2, relative to control (100%), read-out: Emax (maximum rate of increase in activity within the measurement range)
T1 construct: The full length cDNAs of human AMPK β2 (NM_005399.3) and human AMPK α2 (NM_006252.3) were inserted; the full length cDNA of human AMPK γ1 (NM_002733.3) had been inserted into pET28b(+); 6xHis (N); made in house; host or cells: Escherichia coli BL21 CodonPlus (DE3)-RIL (AMPK); BL21 Star (DE3) (CaMKKβ)
T1 sequence (P54646 whole entry): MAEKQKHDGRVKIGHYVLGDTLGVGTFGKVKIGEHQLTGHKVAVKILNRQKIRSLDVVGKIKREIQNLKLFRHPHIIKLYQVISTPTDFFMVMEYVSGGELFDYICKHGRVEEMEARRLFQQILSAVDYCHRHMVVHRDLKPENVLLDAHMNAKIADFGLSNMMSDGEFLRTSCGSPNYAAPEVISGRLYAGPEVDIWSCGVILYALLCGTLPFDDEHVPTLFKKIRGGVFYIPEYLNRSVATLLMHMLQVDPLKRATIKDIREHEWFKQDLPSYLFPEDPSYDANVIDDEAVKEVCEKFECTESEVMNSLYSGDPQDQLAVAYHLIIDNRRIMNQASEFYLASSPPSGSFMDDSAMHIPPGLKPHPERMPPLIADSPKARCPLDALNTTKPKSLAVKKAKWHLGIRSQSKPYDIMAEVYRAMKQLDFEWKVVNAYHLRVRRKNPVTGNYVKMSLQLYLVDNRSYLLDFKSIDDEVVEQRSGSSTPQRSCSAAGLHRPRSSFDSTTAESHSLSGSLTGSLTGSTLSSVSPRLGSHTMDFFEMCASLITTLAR
T1 sequence (O43741 whole entry): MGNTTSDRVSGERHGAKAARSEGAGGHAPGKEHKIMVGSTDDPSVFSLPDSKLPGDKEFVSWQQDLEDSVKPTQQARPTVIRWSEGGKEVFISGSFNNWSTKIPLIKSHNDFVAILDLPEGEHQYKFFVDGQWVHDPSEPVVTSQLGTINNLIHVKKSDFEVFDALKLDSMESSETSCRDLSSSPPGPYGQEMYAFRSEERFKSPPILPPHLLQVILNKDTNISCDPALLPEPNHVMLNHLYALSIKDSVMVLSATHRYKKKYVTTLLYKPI
T1 sequence (P54619 whole entry partner): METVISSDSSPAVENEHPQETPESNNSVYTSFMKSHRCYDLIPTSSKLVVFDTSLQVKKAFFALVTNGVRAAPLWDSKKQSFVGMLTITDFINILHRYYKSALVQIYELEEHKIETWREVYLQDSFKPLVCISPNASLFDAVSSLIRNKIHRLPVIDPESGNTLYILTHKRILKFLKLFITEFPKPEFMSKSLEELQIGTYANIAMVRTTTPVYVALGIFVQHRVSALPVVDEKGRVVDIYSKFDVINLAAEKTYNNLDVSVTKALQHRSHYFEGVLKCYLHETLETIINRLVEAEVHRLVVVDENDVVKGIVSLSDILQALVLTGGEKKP
Method: The full length cDNAs of human AMPK β2 (NM_005399.3) and human AMPK α2 (NM_006252.3) were inserted into the MCS1 and MCS2 of the pETDuet-1 vector to prepare a human AMPK β2 and human AMPK α2 (6× His tag at the 5′ terminus) expressing plasmid. The plasmid was contransfected with an expression plasmid, in which the full length cDNA of human AMPK γ1 (NM_002733.3) had been inserted into pET28b(+), into BL21 CodonPlus (DE3)-RIL to obtain an expression strain. The expression strain was cultured in TB medium, followed by induction with 0.5 mM IPTG, and cultured at 25° C. for 3 hours and then harvested. After ultrasonication, supernatant was collected and applied to Histrap FF column (GE) and RESOUECE Q column (GE) to prepare 12.5 mg of purified sample containing three types of subunit from 1.8 L of broth.
An expression vector, in which the full length cDNA of human CAMKK β (NM_172226.1) had been inserted into pGEX-6P-3, was transfected into BL21 Star (DE3). The expression strain was cultured in TB medium, followed by induction with 0.5 mM IPTG, and cultured at 25° C. for 3 hours and then harvested. After ultrasonication, supernatant was collected and applied to GSTrap FF column (GE) to prepare 14 mg of GST-fused CAMKK β from 720 ml of broth.
Evaluation Method of an Activator for AMP-activated Protein Kinase (AMPK) (Test Example 2)
Thus, phosphorylation treatment was carried out as pretreatment.
Human AMPK α2β2γ1 in an amount to give a conversion rate of approximately 10% by reaction for 2 hours, and CaMKK2 in an amount capable of sufficiently imparting activity to AMPK for one hour were mixed in a buffer solution consisting of a 50 mM HEPES-NaOH buffer solution (pH 7.0), 100 mM NaCl, 5 mM magnesium chloride, 0.1% bovine serum albumin, 0.2 mM sodium orthovanadate(V), 1 mM ethylene glycol-bis(2-aminoethyl ether)-N,N,N′,N′-tetraacetic acid (EGTA), 5 mM disodium β-glycerophosphate, 1 mM dithiothreitol and 0.2 mM ATP, and the obtained liquid was left to stand at 25° C. for 1 to 1.5 hours to sufficiently phosphorylate AMPK.
After that, to the enzyme liquid, which had been subjected to phosphorylation treatment, a compound dissolved in DMSO was added so as to have a 1% DMSO concentration. The obtained liquid was left to stand for 10 minutes.
To the liquid, a substrate solution consisting of a 50 mM HEPES-NaOH buffer solution (pH 7.0), 100 mM NaCl, 10 mM magnesium chloride, 0.1% bovine serum albumin, 0.2 mM sodium orthovanadate(V), 1 mM ethylene glycol-bis(2-aminoethyl ether)-N,N,N′,N′-tetraacetic acid (EGTA), 5 mM disodium β-glycerophosphate, 2 mM dithiothreitol, 0.4 mM ATP and 3 μM FL-Peptide 7 (manufactured by Caliper Life Sciences, Inc.) was added in equal amount (10 μl in total). The obtained liquid was allowed to react at 25° C. for 2 hours, and 10 μl of 20 mM EDTA was then added thereto to stop the reaction.
(§1) To detect phosphorylated fluorescent substrates, the reaction liquid was applied to a measuring device, LabChip EZ Reader II manufactured by Caliper Life Science, Inc., for detecting fluorescence by using differences in mobility due to differences in charge. The setting conditions for the device were pressure, −1.5 PSI; upstream voltage, −2250 V; downstream voltage, −400 V; post sample buffer sip time, 40 seconds; final delay, 120 seconds; and peak order, Product First.
(§2) A conversion rate was calculated from the peak heights of the resulting substrate and product. The conversion rate when not containing a compound was used as a control, and a concentration dependent curve was made by plotting the rate of increase in activity to the control at each concentration of a compound.

human AMPK α1β1γ1 enzyme = target: T2, human AMPK α1β1γ1 enzyme (Homo sapiens, UniProt Q13131+Q9Y478); experiment: Evaluation of AMPK activator, Test Example 1 (mobility-shift kinase assay, FL-Peptide 7); assay type: biochemical; details: for EC150 (compound concentration showing 150% relative to the control (100%)): human AMPK α1β1γ1, 25° C., 2 hours, 0.2 mM ATP final; for Emax: human AMPK α1β1γ1, relative to control (100%), read-out: Emax (maximum rate of increase in activity within the measurement range)
T2 construct: purchased Carna Biosciences, Inc
T2 sequence (Q13131 10-559 limits assumed): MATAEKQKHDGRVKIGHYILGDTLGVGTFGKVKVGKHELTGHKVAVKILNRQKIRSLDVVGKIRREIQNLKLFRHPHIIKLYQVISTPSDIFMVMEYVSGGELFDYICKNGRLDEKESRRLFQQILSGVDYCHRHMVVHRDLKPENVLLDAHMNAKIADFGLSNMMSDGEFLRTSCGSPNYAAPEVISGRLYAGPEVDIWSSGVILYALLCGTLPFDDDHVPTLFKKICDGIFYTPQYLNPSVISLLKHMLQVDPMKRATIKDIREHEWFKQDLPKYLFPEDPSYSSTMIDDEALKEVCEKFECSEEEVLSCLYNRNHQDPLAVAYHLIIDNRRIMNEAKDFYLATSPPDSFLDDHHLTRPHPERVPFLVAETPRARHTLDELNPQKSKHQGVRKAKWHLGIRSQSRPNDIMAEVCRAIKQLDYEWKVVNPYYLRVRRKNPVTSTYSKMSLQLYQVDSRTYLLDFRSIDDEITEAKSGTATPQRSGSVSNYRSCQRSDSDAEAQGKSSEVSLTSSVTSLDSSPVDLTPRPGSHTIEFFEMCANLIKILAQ
T2 sequence (Q9Y478 whole entry): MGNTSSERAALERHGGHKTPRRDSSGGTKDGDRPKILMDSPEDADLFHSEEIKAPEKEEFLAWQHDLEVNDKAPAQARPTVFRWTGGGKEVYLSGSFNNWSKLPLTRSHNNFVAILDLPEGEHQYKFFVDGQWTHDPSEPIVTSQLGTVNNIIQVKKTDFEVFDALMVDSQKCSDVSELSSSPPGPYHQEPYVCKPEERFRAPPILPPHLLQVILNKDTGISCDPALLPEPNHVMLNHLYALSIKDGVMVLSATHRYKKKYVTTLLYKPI
T2 sequence (P54619 whole entry partner): as the sequence (P54619 whole entry partner) above
Method: The obtained liquid was left to stand for 10 minutes.
The obtained liquid was allowed to react at 25° C. for 2 hours, and 10 μl of 20 mM EDTA was then added thereto to stop the reaction.
as §1, §2

Compound | EC150 (compound concentration showing 150% relative to the control (100%)) (Human AMPK α2β2γ1) [nM] | Emax (Human AMPK α2β2γ1) [%] | EC150 (compound concentration showing 150% relative to the control (100%)) (human AMPK α1β1γ1 enzyme) [nM] | Emax (human AMPK α1β1γ1 enzyme) [%]
CC(Oc1nc2nc(-c3ccc(N4CCCC4)cc3)c(Cl)cc2[nH]1)c1cc(O)no1 (centres unmarked) [Compound I-2-112] | 74 | 269 | 25 | 246
NC(=O)c1ccc(-c2ccc(-c3nc4nc(O[C@H]5CC[C@H](C(=O)O)CC5)[nH]c4cc3Cl)cc2)cc1 [Compound I-3-120] | 7 | 262 | 28 | 216
